# Measurements as given in patent US8231887B2, “Pesticidal compositions” (BASF Corporation, priority 2008, dated 2012).
# Where “and” joins values, the source holds several entries; their conditions need not be identical. Equal entries are not always repeated.
# What was measured:
# [1] = test system: cockroaches; assay: LD50 and LD10 of mineral oils and alcohols, dose-response mortality, probit analysis (Example 9); assay type: in vivo, Blattella germanica; settings: 95% CI printed in the line below
# Procedure: In this example, various mineral oils and alcohols were tested to determine, for cockroaches, the LD50 and LD10 for each.
# PD23 and PD28 mineral oils were obtained from Sonneborn LLC, Mahwah, N.J. The physical properties of these oils are shown in Table 11. Each mineral oil was tested to determine the LD50 and LD10 (Table 12).
# The tested alcohols were obtained from Sigma-Aldrich Corp., St. Louis, Mo. Each alcohol was tested to determine the LD50 and LD10 (Table 12).
# [2] = test system: cockroaches; assay: Topical toxicity test of alcohols and/or PD23 mineral oil, dead at 24 h (Example 10); assay type: in vivo, Blattella germanica
# Procedure: (§1) Toxicity evaluations were performed on 7-14 day old adult male and female German cockroaches (SCJ Strain, S.C. Johnson & Son, Racine, Wis.). Approximately 12 cockroaches were transferred to individual 100×20 mm polystyrene Petri dishes and anesthetized with a 15-25 second exposure to carbon dioxide. The inside edge of each Petri dish was lightly coated with mineral oil plus petroleum jelly in a 1:3 (wt/wt) ratio to minimize escape. Anesthetized cockroaches were positioned with their ventral side up, and a 1 μl drop of the diluted test composition was applied to the area between the meso- and metathoracic legs using a Rainin L-10, 10 μl capacity pipette (Rainin Instrument, LLC, Oakland, Calif.). Five replications of 12 male cockroaches were done for each test composition. Separate tests were done using female cockroaches. Results were evaluated at 24 hours following treatment. Cockroaches were scored as either alive (dorsal side up, active movement when abdomen prodded with dissecting probe) or moribund/dead (dorsal side up and no movement when abdomen prodded or ventral side up and insect unable to right itself).
# The compositions comprising alcohol and/or mineral oil are described in Table 13.
# [3] = test system: cockroaches; assay: 1-propanol and 1-heptanol alone and in combination with Exxsol D95 mineral oil (Example 17); assay type: in vivo; settings: for # dead at 24 h / Proportion dead at 24 h: individual treatment; for synergy with EXXSOL D95: result in words
# [4] = test system: cockroaches (all male); assay: Topical toxicity test of mineral oil and/or hexylene glycol, isopropyl myristate, dioxane or d-limonene in acetone (Examples 3-6); assay type: in vivo, Blattella germanica; settings: 24 hours; for # dead: 1 μl topical, remainder acetone
# Procedure: as §1, with “itself). […]” for “itself).”
# (§2) Tests were generally performed as described in Example 1, except the number of cockroaches (all male) tested for each composition is set forth below in Table 6, and the compositions were not further diluted with acetone in a 1:1 (wt/wt) ratio prior to testing. The results are shown in Table 6, which lists the number of cockroaches tested for each composition, the number of dead cockroaches out of the total number of cockroaches tested, the square root percent dead cockroaches, the proportion of dead cockroaches, and the arcsine square root percent dead cockroaches.
# as §2, with “7,” for “6,”
# [5] = Table 14, composite data of the replicates
# [6] = Table 14, composite data, calculated proportion
compound,measurement,setting,value
1-propanol [Composition 1-propanol],LD10 mg/insect,[1],0.472 mg/insect
same,LD50 mg/insect,[1],0.557 mg/insect
same,# dead at 24 h,"[2]; Table 13, per replicate of 10-16 treated cockroaches, mg per insect in the label, listed as 1-propanol (0.45 mg)",1 and 0 (2×)
same,Proportion dead at 24 h,"[2]; Table 13, per replicate, listed as 1-propanol (0.45 mg)",0.083 and 0.000 (2×)
same,# dead at 24 h,[2]; [5],1
same,Proportion dead at 24 h,[2]; [6],0.028
same,# dead at 24 h,[3]; 0.45 mg,1
same,Proportion dead at 24 h,[3]; 0.45 mg,0.028
same,synergy with EXXSOL D95,[3],significant synergy
"CCCCCCCO [Composition 1-heptanol, 1-heptanol]",# dead at 24 h,[2]; [5],1
same,Proportion dead at 24 h,[2]; [6],0.028
same,# dead at 24 h,[3]; 0.40 mg,1
same,Proportion dead at 24 h,[3]; 0.40 mg,0.028
same,synergy with EXXSOL D95,[3],significant synergy
"C1COCCO1 [Dioxane (50%), Dioxane]",# dead,"[4]; Table 6, per replicate",0 (4×) and 1
same,Arcsine square root % dead,"[4]; Table 6, per replicate",0
same,Proportion dead,"[4]; Table 6, per replicate",0
same,Square root % dead,"[4]; Table 6, per replicate",0
"C=C(C)[C@H]1CC=C(C)CC1 [d-limonene (40%), d-limonene]",# dead,"[4]; Table 7, per replicate",1 and 0 and 2 (2×)
same,Arcsine square root % dead,"[4]; Table 7, per replicate",0
same,Proportion dead,"[4]; Table 7, per replicate",0
same,Square root % dead,"[4]; Table 7, per replicate",0
